Key:
786-O = assay: in vitro cytotoxicity evaluation, Renal Cancer; assay type: cell-based; conditions: Homo sapiens, 786-0, 48 h, two days, sulforhodamine B
Description: (§1) These assays were carried out at the Developmental Therapeutics Program, Division of Cancer Treatment, National Cancer Institute (Bethesda, Md., USA). The method consists of incubating varying concentrations of the drug with an inoculum of cells for two days.
(§2) It should be noted that the first two parameters (GI50 and TGI) relate to antiproliferation effects while the third one (LC50) indicates true cytotoxicity.

ACHN = assay: in vitro cytotoxicity evaluation, Renal Cancer; assay type: cell-based; conditions: Homo sapiens, 48 h, two days, sulforhodamine B
Description: as §1, §2

SN12C = assay: in vitro cytotoxicity evaluation, Renal Cancer; assay type: cell-based; conditions: Homo sapiens, 48 h, two days, sulforhodamine B
Description: as §1, §2

CAKI-1 = assay: in vitro cytotoxicity evaluation, Renal Cancer; assay type: cell-based; conditions: Homo sapiens, 48 h, CAKI-1, two days, sulforhodamine B
Description: as §1, §2

RXF-393 = assay: in vitro cytotoxicity evaluation, Renal Cancer; assay type: cell-based; conditions: Homo sapiens, 48 h, RXF-393, two days, sulforhodamine B
Description: as §1, §2

SK-MEL-28 = assay: in vitro cytotoxicity evaluation, Melanoma; assay type: cell-based; conditions: Homo sapiens, 48 h, SK-MEL-28, two days, sulforhodamine B
Description: as §1, §2

UACC-257 = assay: in vitro cytotoxicity evaluation, Melanoma; assay type: cell-based; conditions: Homo sapiens, 48 h, UACC-257, two days, sulforhodamine B
Description: as §1, §2

M19-MEL = assay: in vitro cytotoxicity evaluation, Melanoma; assay type: cell-based; conditions: Homo sapiens, 48 h, two days, sulforhodamine B
Description: as §1, §2

M14 = assay: in vitro cytotoxicity evaluation, Melanoma; assay type: cell-based; conditions: Homo sapiens, 48 h, M14, two days, sulforhodamine B
Description: as §1, §2

LOX IMVI = assay: in vitro cytotoxicity evaluation, Melanoma; assay type: cell-based; conditions: Homo sapiens, 48 h, two days, sulforhodamine B
Description: as §1, §2

SK-MEL-5 = assay: in vitro cytotoxicity evaluation, Melanoma; assay type: cell-based; conditions: Homo sapiens, 48 h, SK-MEL-5, two days, sulforhodamine B
Description: as §1, §2

UACC-62 = assay: in vitro cytotoxicity evaluation, Melanoma; assay type: cell-based; conditions: Homo sapiens, 48 h, UACC-62, two days, sulforhodamine B
Description: as §1, §2

MALME-3M = assay: in vitro cytotoxicity evaluation, Melanoma; assay type: cell-based; conditions: Homo sapiens, 48 h, two days, sulforhodamine B
Description: as §1, §2

SK-MEL-2 = assay: in vitro cytotoxicity evaluation, Melanoma; assay type: cell-based; conditions: Homo sapiens, 48 h, SK-MEL-2, two days, sulforhodamine B
Description: as §1, §2

59 tumor cell lines = assay: in vitro cytotoxicity evaluation, whole panel; assay type: cell-based, human
Description: as §1, §2

[1] = read-out: LOG10 G150 (GI50) (converted)
[2] = read-out: Log10 LC50 (converted)
[3] = read-out: Log10 TGI (converted)

## COc1c2c(c(OC)c3c(=O)c4ccccc4sc13)CS(=O)(=O)[C@@H]2O[C@H]1C[C@H](N)[C@H](O)[C@H](C)O1 [BCH-255, (1S ) 1-daunosamine-4-11-dimethoxy-5-oxo-5-H-1,3-dihydrothioxantheno [2,3-c] thiophene-2,2-dioxide]
786-O; [1]
  GI50: 16.2 µM
786-O; [2]
  CC50: 58.9 µM
786-O; [3]
  IC (total growth inhibition (TGI)): 30.9 µM
ACHN; [1]
  GI50: 17.4 µM
ACHN; [2]
  CC50: 61.7 µM
ACHN; [3]
  IC (total growth inhibition (TGI)): 32.4 µM
SN12C; [1]
  GI50: 18.2 µM
SN12C; [2]
  CC50: 72.4 µM
SN12C; [3]
  IC (total growth inhibition (TGI)): 36.3 µM
CAKI-1; [1]
  GI50: 19.5 µM
CAKI-1; [2]
  CC50: 74.1 µM
CAKI-1; [3]
  IC (total growth inhibition (TGI)): 38 µM
RXF-393; [1]
  GI50: 17 µM
RXF-393; [2]
  CC50: 72.4 µM
RXF-393; [3]
  IC (total growth inhibition (TGI)): 35.5 µM
SK-MEL-28; [1]
  GI50: 18.2 µM
SK-MEL-28; [2]
  CC50: 67.6 µM
SK-MEL-28; [3]
  IC (total growth inhibition (TGI)): 34.7 µM
UACC-257; [1]
  GI50: 22.4 µM
UACC-257; [2]
  CC50: 85.1 µM
UACC-257; read-out: Log10 TGI
  IC (total growth inhibition (TGI)): 43.7 µM
M19-MEL; [1]
  GI50: 18.2 µM
M19-MEL; [2]
  CC50: 67.6 µM
M19-MEL; [3]
  IC (total growth inhibition (TGI)): 34.7 µM
M14; [1]
  GI50: 18.2 µM
M14; [2]
  CC50: 60.3 µM
M14; [3]
  IC (total growth inhibition (TGI)): 33.1 µM
LOX IMVI; [1]
  GI50: 17.8 µM
LOX IMVI; [2]
  CC50: 81.3 µM
LOX IMVI; [3]
  IC (total growth inhibition (TGI)): 38 µM
SK-MEL-5; [1]
  GI50: 18.2 µM
SK-MEL-5; [2]
  CC50: 57.5 µM
SK-MEL-5; [3]
  IC (total growth inhibition (TGI)): 32.4 µM
UACC-62; [1]
  GI50: 19.1 µM
UACC-62; [2]
  CC50: 74.1 µM
UACC-62; [3]
  IC (total growth inhibition (TGI)): 37.2 µM
MALME-3M; [1]
  GI50: 20 µM
MALME-3M; [2]
  CC50: 67.6 µM
MALME-3M; [3]
  IC (total growth inhibition (TGI)): 36.3 µM
SK-MEL-2; [1]
  GI50: 19.1 µM
SK-MEL-2; [2]
  CC50: 70.8 µM
SK-MEL-2; [3]
  IC (total growth inhibition (TGI)): 36.3 µM
59 tumor cell lines; DELTA over the panel
  DELTA of Log10 TGI: 0.13
59 tumor cell lines; Homo sapiens, 48 h, MG MID over the panel, read-out: MG MID of Log10 LC50 (converted)
  CC50: 75.9 µM
59 tumor cell lines; Homo sapiens, 48 h, MG MID over the panel, read-out: MG MID of Log10 TGI (converted)
  IC (TGI): 40.7 µM
59 tumor cell lines; Homo sapiens, MG MID over the panel, read-out: MG MID of LOG10 G150 (GI50) (converted)
  GI50: 20 µM
59 tumor cell lines; RANGE over the panel
  RANGE of Log10 TGI: 0.52
59 tumor cell lines; solid tumors and leukemia cell lines
  cytotoxicity: all the cell lines of solid tumors and leukemia showed cytotoxcity to the drug
59 tumor cell lines; tumor cell line panel
  spectrum of antitumor activity: wide spectrum of antitumor activity
